Reference: patent US20260286363A1, “COMPOSITIONS AND METHODS FOR DIAGNOSING, TREATING, AND PREVENTING LYSOSOMAL STORAGE DISEASES” (Wylder Nation Foundation, priority 2022, published 2026)
Read-outs that look alike come from different tables or passages of the source.

How the values were obtained:
[1] = system: Cortical neurons from wt mice; test: LC/MS quantification of SM in cultured wt neurons incubated with SM species; format: cell-based, mouse; conditions: for increase of total SM levels: wt cortical neurons cultured 48 hr with 40 μM; for relative abundance of the added SM species, of the total SM: wt cortical neurons, 48 hr, 40 μM
Experimental: Sample analysis was performed in an Acquity ultraperformance liquid chromatography (UPLC) system (Waters, USA) connected to a time-of-flight (TOF; LCT Premier XE) detector controlled with Waters/Micromass MassLynx software.
A study was done to determine the impact of the different increments of individual SM species in ASMko mice and cells on their specific accumulation in neurons. Cortical neurons from wt mice were cultured for 48 hr with 40 μM of either total SM from bovine brain (SMb, containing similar SM species proportions than total SM from mouse brain); or individual SM16:0; SM18:0 or SM24:1. […] LC/MS quantification assessed the effect of each treatment on the relative abundance of the added SM species. Incubation with SM16:0 and SM18:0 drastically raised the relative abundance of each of these species to 88% and 82% of the total (FIG. 2B). Incubation with SM24:1 increased the prevalence of this species to 30%, while addition of SMb reduced the relative abundance of SM18:0 and SM16:0 by 4% and 15%, respectively, while increased that of SM24:1 by 8% (FIG. 2B).

cultured wt neurons [2] = test: LAMP1 surface staining in non-permeabilized neurons (lysosomal exocytosis); format: cell-based, mouse
Experimental: ASMko and wt cultured neurons at 14DIV were washed with PBS and fixed with 2% PFA in PBS and 0.12 M sucrose for 8 min. Immunofluorescence was performed using a conventional protocol in the absence of detergent to avoid cell permeabilization.

cultured wt neurons [3] = test: Cell viability MTT assay in cultured wt neurons; format: cell-based, mouse; conditions: for neuronal death upon SM16:0 addition in the presence of acid and neutral sphingomyelinase inhibitors (MTT): wt neurons, SM16:0 plus desipramine or GW4869
Experimental: Cell viability was evaluated using the MTT (methylthiazolyldiphenyltetrazoliumbromide, Sigma) assay. Briefly, 3×10^4 neurons were plated in 96-well plates coated with poly-L-lysine (0.1 mg/ml). At DIV14 1 mM MTT was added to the wells and incubated for 4 h. Then, the supernatant was discarded, and […] DMSO was added to the wells. The absorbance was measured at 570 nm using a microplate reader (FLUOstar Optima, BMG Labtech). Cells treated with DMSO were used as a control.

cultured wt neurons [4] = test: pSM16:0 co-localization with subcellular markers (Mander's coefficient); format: cell-based, mouse
Experimental: Cultured neurons at 14 DIV were fixed in 4% PFA 0.12M sucrose and incubated overnight with primary antibodies and subsequently for 1 h with Alexa 488- or Alexa 555-conjugated secondary antibodies. Images were taken using a confocal microscope LSM710 (Zeiss). The Mander's coefficient for pSM 16:0 co-localization with Thy1; PSD95; TOM20; EEA1; LAMP1; GM130 was determined by using the JACOP plugin. Mouse brains were dissected, fixed in 4% PFA 0.12M sucrose, and cryoprotected for 24 h in 30% sucrose phosphate buffer saline. The tissue was then frozen in Tissue-Tek optimal cutting temperature compound (Sakura Finetek, Torrance, CA, USA), and 40-μm sagittal sections were obtained with a cryostat (CM 1950 Ag Protect freezing: Leica, Solms, Germany). The sections were incubated overnight at 4° C. with the primary antibodies and then with the corresponding Alexa-conjugated secondary antibodies. Finally, the sections were incubated for 10 min with DAPI (Merck), washed, and mounted with ProLong Gold Antifade (Thermo Fisher). Images were obtained on a confocal LSM710 microscope (Zeiss) and quantified using the Fiji software.
Cultured neurons were treated with 40 μM propargyl SM (pSM 16:0) (Merck; #860711P) for 48 hours at DIV12. After immunofluorescence protocol, explained above, click reaction was performed for the attachment of fluorescent reporter (Sulfo-Cy3-Azide; Jena Biosciences; #CLK-AZ119-1) to pSM 16:0.
The surprising effects of SM16:0 on lysosomes compared to other SM species supported a hypothesis that this lipid targets these organelles. To explore this possibility, we took advantage of the existence of the analogue propargyl SM16:0 (pSM16:0), which is linked to an alkyne group and can be traced by click chemistry and fluorescence microscopy. We added pSM16:0 for 48 hours to cultured wt neurons and performed double immunofluorescence with markers of different cellular compartments.

ASM = biological target: T1, ASM (Mus musculus, UniProt Q04519); test: Enzymatic assay of SMb or SM16:0 metabolized by ASM activity; format: biochemical; conditions: fluorescence per nmol metabolized, slope analysis
T1 sequence (Q04519 45-627): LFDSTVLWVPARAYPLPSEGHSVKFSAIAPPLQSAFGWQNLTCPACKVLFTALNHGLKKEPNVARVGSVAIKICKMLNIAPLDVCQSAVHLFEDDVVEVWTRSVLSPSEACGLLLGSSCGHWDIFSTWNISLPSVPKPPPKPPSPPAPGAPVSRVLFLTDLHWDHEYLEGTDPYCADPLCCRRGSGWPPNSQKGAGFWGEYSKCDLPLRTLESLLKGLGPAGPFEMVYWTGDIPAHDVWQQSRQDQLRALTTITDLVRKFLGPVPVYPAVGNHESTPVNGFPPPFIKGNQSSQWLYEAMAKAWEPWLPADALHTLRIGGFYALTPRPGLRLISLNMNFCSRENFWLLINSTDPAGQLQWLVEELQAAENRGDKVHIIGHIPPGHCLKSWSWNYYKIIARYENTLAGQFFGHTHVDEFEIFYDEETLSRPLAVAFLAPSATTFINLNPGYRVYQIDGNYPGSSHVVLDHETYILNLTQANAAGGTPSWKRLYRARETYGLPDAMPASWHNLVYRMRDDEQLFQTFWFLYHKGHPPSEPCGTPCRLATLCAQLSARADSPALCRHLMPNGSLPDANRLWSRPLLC
Experimental: SM levels were measured according to protocols modified from (Hojati and Jiang, 2006). Lipid extracts were dried in the presence of Thesit, and SM was converted into peroxide by incubation with sphingomyelinase (Smase C from Merck; #S9396 or ASM from Sino Biological; #50749-M08B), alkaline phosphatase, and choline oxidase. Peroxide was measured fluorimetrically in the presence of peroxidase and homovanillic acid (Van Veldhoven et al., 1997).

[5] = system: wt primary cultured neurons; conditions: not told
Experimental: Lysotracker Red DND99 (Thermo Fisher Scientific) was added to wt primary cultured neurons at 1 μM and incubated for 20 min at 37° C. Cells were then fixed in 4% PFA and mounted using Prolong Gold Antifade (Invitrogen). Images were taken on a confocal LSM710 microscope (Zeiss).
To investigate the effect of the different SM species in these organelles, several lysosomal-related parameters were measured. To analyze lysosomal permeabilization, the lysotracker red dye, which fluoresces in acidic environments was utilized.

wt neurons = conditions: cultured neurons
Experimental: To assess reactive oxygen species (ROS), cultured neurons were incubated for 20 min with dihydrorhodamine 123 (10 μM, DHR: Molecular Probes, Carlsbad, CA, USA). The fluorescence product of DHR, rhodamine-123, was detected at excitation and emission wavelengths of 500 and 536 nm, respectively. Images of cultured neurons were captured on a confocal microscope (LSM710; Zeiss).
Since high levels of SM also can induce oxidative stress, reactive oxygen species (ROS) was evaluated by dihydrorhodamine 123 (DHR) staining in wt neurons incubated with the different SM species.

ASM knock-out mice = test: Lipidomic analysis of brain, liver and plasma of ASM knock-out mice after i.p. rhASM; format: in vivo, mouse
Experimental: Mouse brain and liver samples were homogenized in water (1 g wet tissue/4 mL). SM was extracted from 50 μL of homogenate or 50 μL of plasma in the presence of SM (17:0) as internal standard using Bligh-Dyer lipid extraction (Bligh and Dyer, 1959). Sample analysis was performed in a Shimadzu 20AD HPLC system coupled to a 6500QTRAP+ mass spectrometer (AB Sciex, Framingham, MA) operated in positive multiple reaction monitoring mode. Data processing was conducted with Analyst 1.6.3 (AB Sciex). Data were reported as the peak area ratios of the analytes in sample to the internal standard.
To identify potential biomarkers of brain pathology in ASMD subjects a study was conducted in ASM knock-out mice. In brief, ASM knock-out mice received an i.p. injection of rhASM at 1 mg/kg every other day for 14 days. Results were compared to previous lipidomic analysis done on WT/ASMko mice at 2, 4, and 6 months.
Lipidomic analysis were completed on the brain, liver, and plasma of the treated mice. Analyzed lipids comprised: SM, LSM, SM OH, and m/z 805 (a phosphocholine compound). Total SM levels post i.p. rhASM injection are shown in FIG. 13A and below at Table 3.

[6] = 48 hours, wt neurons, Mander's coefficient
[7] = Liver, i.p. 1 mg/kg every other day for 14 days
[8] = Plasma, i.p. 1 mg/kg every other day for 14 days

CCCCCCCCCCCCC/C=C/[C@@H](O)[C@H](COP(=O)([O-])OCC[N+](C)(C)C)NC(=O)CCCCCCCCCCCCCCC [SM16:0, sphingomyelin 16:0]
increase of total SM levels [1]: 6.6 fold | relative abundance of the added SM species, of the total SM [1]: 88% | lysosomal exocytosis (surface staining of LAMP1) (cultured wt neurons [2]): induced lysosomal exocytosis | reduction of neuronal survival / cell death (MTT) (cultured wt neurons [3]; mouse, cultured neurons): 50% | neuronal death upon SM16:0 addition in the presence of acid and neutral sphingomyelinase inhibitors (MTT) (cultured wt neurons [3]): induces cell death | accumulation in lysosomes (pSM16:0 colocalization with Lamp1) (cultured wt neurons [4]; wt neurons treated with ASM inhibitor desipramine): accumulates in lysosomes | substrate preference of ASM (SM16:0 vs SMb) (ASM): ASM has a preference to degrade SM16:0 | lysosomal permeabilization (change of Lysotracker staining from dotty to diffuse cytosolic pattern) [5]: indicative of lysosomal permeabilization | elevation in ROS levels (DHR staining) (wt neurons): 1.6 fold

Cl.Cl.O=C(/C=C/c1ccc(/C=C/C(=O)Nc2ccc(C3=NCCN3)cc2)cc1)Nc1ccc(C2=NCCN2)cc1 [GW4869]
neuronal death upon SM16:0 addition in the presence of acid and neutral sphingomyelinase inhibitors (MTT) (cultured wt neurons [3]): not prevented

sphingomyelin 24:1 [SM24:1]
increase of total SM levels [1]: not significant | relative abundance of the added SM species, of the total SM [1]: 30% | reduction of neuronal survival / cell death (MTT) (cultured wt neurons [3]): no deleterious effects

CCCCCCCCCCCCC/C=C/[C@@H](O)[C@@H](N)COP(=O)([O-])OCC[N+](C)(C)C [LysoSM, lyso-sphingomyelin]
deleterious effects on cultured neurons (MTT viability) (cultured wt neurons [3]; addition to cultured neurons): did not find deleterious effects

CCCCCCCCCCCCC/C=C/[C@@H](O)[C@H](COP(=O)([O-])OCC[N+](C)(C)C)NC(=O)CCCCCCCCCCCCCCCCC [SM18:0, sphingomyelin 18:0]
increase of total SM levels [1]: 3.5 fold | relative abundance of the added SM species, of the total SM [1]: 82% | reduction of neuronal survival / cell death (MTT) (cultured wt neurons [3]; mouse, cultured neurons): 25%

propargyl SM16:0 [pSM16:0]
co-localization with early endosome marker EEA1 (cultured wt neurons [4]; [6]): low degree of co-localization | co-localization with mitochondrial marker TOM20 (cultured wt neurons [4]; [6]): low degree of co-localization | co-localization with plasma membrane marker Thy-1 (cultured wt neurons [4]; [6]): low degree of co-localization | co-localization with synaptic marker PSD95 (cultured wt neurons [4]; [6]): low degree of co-localization | colocalization with Golgi apparatus marker GM130 (cultured wt neurons [4]; [6]): high colocalization | colocalization with endolysosomal marker LAMP1 (cultured wt neurons [4]; [6]): high colocalization

B1: rhASM: recombinant human acid sphingomyelinase (protein, UniProt P17405 47-631, looked up)
Sphingomyelin …: LALSDSRVLWAPAEAHPLSPQGHPARLHRIVPRLRDVFGWGNLTCPICKGLFTAINLGLKKEPNVARVGSVAIKLCNLLKIAPPAVCQSIVHLFEDDMVEVWRRSVLSPSEACGLLLGSTCGHWDIFSSWNISLPTVPKPPPKPPSPPAPGAPVSRILFLTDLHWDHDYLEGTDPDCADPLCCRRGSGLPPASRPGAGYWGEYSKCDLPLRTLESLLSGLGPAGPFDMVYWTGDIPAHDVWHQTRQDQLRALTTVTALVRKFLGPVPVYPAVGNHESTPVNSFPPPFIEGNHSSRWLYEAMAKAWEPWLPAEALRTLRIGGFYALSPYPGLRLISLNMNFCSRENFWLLINSTDPAGQLQWLVGELQAAEDRGDKVHIIGHIPPGHCLKSWSWNYYRIVARYENTLAAQFFGHTHVDEFEVFYDEETLSRPLAVAFLAPSATTYIGLNPGYRVYQIDGNYSGSSHVVLDHETYILNLTQANIPGAIPHWQLLYRARETYGLPNTLPTAWHNLVYRMRGDMQLFQTFWFLYHKGHPPSEPCGTPCRLATLCAQLSARADSPALCRHLMPDGSLPEAQSLWPRPLFC
SM 16:0 level decrease after i.p. rhASM injection (ASM knock-out mice; Brain): does not change | Total LSM levels, % Decrease with rhASM injection (ASM knock-out mice; Brain, i.p. 1 mg/kg every other day for 14 days): does not change | SM 16:0 level decrease after i.p. rhASM injection (ASM knock-out mice; Liver): 15% | Total SM levels, % Decrease with rhASM injection (ASM knock-out mice; [7]): 22% | Total m/z 805 levels, % Decrease with rhASM injection (ASM knock-out mice; [7]): 70% | SM 16:0 level decrease after i.p. rhASM injection (ASM knock-out mice; Plasma): 35% | Total LSM levels, % Decrease with rhASM injection (ASM knock-out mice; [8]): 70% | Total SM levels, % Decrease with rhASM injection (ASM knock-out mice; [8]): 31% | SM OH levels after i.p. rhASM injection (ASM knock-out mice; brain, liver, plasma): reduction in all samples tested | m/z 805 levels after rhASM injections, across tissues (ASM knock-out mice; brain, liver, plasma): decreases only in the liver
